Consider four compounds from US9260485B2 (priority 2009, dated 2016).

For data set [1], the system named is A549 non-small-cell lung cancer cell line. Nature of the data set: In vitro cytotoxicity, SRB method. Type of data set: cell-based, Human. Particulars: Homo sapiens, A549, read-out: EC50 (concentration inhibiting cell growth in vitro by 50%). The protocol: (§1) Known cyclic hexadepsipeptides (beauvericin, enniatin H, I, and MK1688) and the compounds of Chemical Formulas 1 and 2 were evaluated for in vitro cytotoxicity against various non-multidrug-resistant human cancer cell lines and multidrug-resistant cancer cell lines using the SRB method.
(§2) Human non-small-cell lung cancer cell line (A549) ovarian cancer cell line (SK-OV-3), skin cancer cell line (SK-MEL-2), and uterine sarcoma cell line MES-SA and its multi-drug resistant subline (MES-SA/DX5) were purchased from the American Type Culture Collection (USA). Colorectal carcinoma cancer cell line (HCT-15) was provided by the National Cancer Institute (NCI). HCT15/CL02 cell lines were established from HCT15 cells by continuous and stepwise exposure of the cells to doxorubicin in the Korea Research Institute of Chemical Technology (Korea).
On the technique in general: Sulforhodamine B stains cellular protein and so reports cell mass.

Data set [2] concerns HCT15 colorectal carcinoma cancer cell line. Description: In vitro cytotoxicity, SRB method. Type of data set: cell-based, Human. Particulars: Homo sapiens, HCT-15, read-out: EC50 (concentration inhibiting cell growth in vitro by 50%). How it is done: as §1, §2
In data set [3] the test system is HCT15/CL02 cell line (doxorubicin-selected from HCT15). Nature of the data set: In vitro cytotoxicity, SRB method. Conditions: Homo sapiens, HCT-15, read-out: EC50 (concentration inhibiting cell growth in vitro by 50%). Type of data set: cell-based, Human. How it is done: as §1, §2
The subject of data set [4] is MES-SA uterine sarcoma cell line. Nature of the data set: In vitro cytotoxicity, SRB method. Conditions: Homo sapiens, read-out: EC50 (concentration inhibiting cell growth in vitro by 50%). The data set is classed as cell-based, Human. How it is done: as §1, §2
In data set [5] the test system is MES-SA/DX5 multi-drug resistant subline. Description: In vitro cytotoxicity, SRB method. The data set is classed as cell-based, Human. Conditions: Homo sapiens, MES-SA/Dx5, read-out: EC50 (concentration inhibiting cell growth in vitro by 50%). How it is done: as §1, §2
In data set [6] the test system is SK-MEL-2 skin cancer cell line. Nature of the data set: In vitro cytotoxicity, SRB method. Type of data set: cell-based, Human. Conditions: Homo sapiens, SK-MEL-2, read-out: EC50 (concentration inhibiting cell growth in vitro by 50%). The protocol:
as §1, §2

The test system of data set [7] is SK-OV-3 ovarian cancer cell line. Description: In vitro cytotoxicity, SRB method. The data set is classed as cell-based, Human. Conditions: Homo sapiens, SK-OV-3, read-out: EC50 (concentration inhibiting cell growth in vitro by 50%). How it is done:
as §1, §2

Data set [8] has as its system MDR cell lines (MES-SA/DX5 and HCT15/CL02). Nature of the data set: Multidrug resistance-reversing activity, summary in words. The data set is classed as cell-based, Human. The protocol: The cyclic pentadepsipeptides of Chemical Formulas 1 and 2 were analyzed for MDR-reversing activity by comparing inhibitory activities against multidrug-resistant cancer cell lines (MES-SA/DX5 and HCT15/CL02) with those against non-multidrug-resistant cancer cell lines (MES-SA and HCT15). In this regard, the effects of the cyclic pentadepsipeptides of Chemical Formulas 1 and 2 on paclitaxel's cytotoxicity against MDR tumor cells were measured (Table 6). […].
Therefore, the N-methyl group in the cyclic pentadepsipeptide may be a factor crucial for the expression of the MDR reversal activity. […]

Data set [9] relates to Bacillus cereus ATCC 13061. Description: Anti-bacterial activity, paper disc clear zone. The data set is classed as cell-based. Particulars: 0.1, 0.5, 1 and 2 mM on paper disc; 37° C., 24 hr. The protocol: (§3) Assays for antibacterial activity were performed with 3 Gram-positive (Listeria monocytogenes ATCC 14028, Staphylococcus aureus ATCC 35556 and Bacillus cereus ATCC 13061) and 3 Gram-negative bacteria (Escherichia coli ATCC 8739, Pseudomonas aeruginosa ATCC 9026 and Salmonella typhimurium ATCC 14028). Each of the compounds of Chemical Formulas 1 and 2 was dissolved in different concentrations (0.1, 0.5, 1, and 2 mM) in dimethyl sulfoxide (DMSO). The solutions were applied to a sterile paper disc (5 mm diameter), followed by evaporating the DMSO solvent. Bacteria was inoculated at a density of 1×10^7 CFU/ml on Tryptic soy agar (TSA) and then, the paper disc was placed on the bacteria-inoculated agars. After incubation at 37° C. for 24 hr, the clear zone around each disc was observed and its diameter was measured.

Data set [10] deals with Escherichia coli ATCC 8739. Description: Anti-bacterial activity, paper disc clear zone. Type of data set: cell-based. Conditions: 0.1, 0.5, 1 and 2 mM on paper disc; 37° C., 24 hr. How it is done:
as §3

Data set [11] relates to Listeria monocytogenes ATCC 14028. Nature of the data set: Anti-bacterial activity, paper disc clear zone. The data set is classed as cell-based. Conditions: 0.1, 0.5, 1 and 2 mM on paper disc; 37° C., 24 hr. The protocol: as §3
Data set [12] concerns Pseudomonas aeruginosa ATCC 9026. Description: Anti-bacterial activity, paper disc clear zone. Type of data set: cell-based. Conditions: 0.1, 0.5, 1 and 2 mM on paper disc; 37° C., 24 hr. The protocol:
as §3

For data set [13], the system named is Salmonella typhimurium ATCC 14028. Nature of the data set: Anti-bacterial activity, paper disc clear zone. Type of data set: cell-based. Particulars: 0.1, 0.5, 1 and 2 mM on paper disc; 37° C., 24 hr. How it is done: as §3
Data set [14] relates to Staphylococcus aureus ATCC 35556. Description: Anti-bacterial activity, paper disc clear zone. The data set is classed as cell-based. Particulars: 0.1, 0.5, 1 and 2 mM on paper disc; 37° C., 24 hr. How it is done: as §3
The test system of data set [15] is Aspergillus oryzae. Nature of the data set: Anti-fungal activity, paper disc on mycelia on PDA. Conditions: 1 mM; 25° C., 48 hr. The data set is classed as cell-based. How it is done: (§4) Inhibitory activity was performed against four fungus strains (Mucor rouxii, Penicillium citrinum, Fusarium oxysporum, and Aspergillus oryzae).
(§5) Drops of 1 and 10 mM solutions of compounds of Chemical Formulas 1 and 2 in methanol were loaded onto sterile paper discs (8 mm diameter) and the methanol solvent was evaporated under a hood. The paper discs were placed on fungus mycelia grown on potato dextrose agar. After incubation at 25° C. for 48 hr, clear zones around the discs were observed and their diameters were measured. A filter treated with pure methanol was used as a negative control.

The subject of data set [16] is Fusarium oxysporum. Description: Anti-fungal activity, paper disc on mycelia on PDA. Type of data set: cell-based. How it is done: as §4, §5
For data set [17], the system named is Mucor rouxii. Nature of the data set: Anti-fungal activity, paper disc on mycelia on PDA. The data set is classed as cell-based. The protocol:
as §4, §5

Data set [18] relates to Penicillium citrinum. Description: Anti-fungal activity, paper disc on mycelia on PDA. The data set is classed as cell-based. Conditions: 1 mM; 25° C., 48 hr. How it is done: as §4, §5
The test system of data set [19] is NCI human tumor cell line screen. Conditions: cited from earlier work.
In data set [20] the test system is HCT15/CL02. Description: Multidrug resistance-reversing activity: effect on paclitaxel's cytotoxicity. Conditions: Homo sapiens, HCT-15, TAX alone. Type of data set: cell-based. The protocol:
(§6) The cyclic pentadepsipeptides of Chemical Formulas 1 and 2 were analyzed for MDR-reversing activity by comparing inhibitory activities against multidrug-resistant cancer cell lines (MES-SA/DX5 and HCT15/CL02) with those against non-multidrug-resistant cancer cell lines (MES-SA and HCT15). In this regard, the effects of the cyclic pentadepsipeptides of Chemical Formulas 1 and 2 on paclitaxel's cytotoxicity against MDR tumor cells were measured (Table 6).

Data set [21] has as its system HCT15. The data set is described as above. Type of data set: cell-based. Particulars: Homo sapiens, HCT-15, TAX alone. The protocol: as §6
In data set [22] the test system is MES-SA/DX5. The description is as above. Type of data set: cell-based. Particulars: Homo sapiens, TAX alone. How it is done: as §6
In data set [23] the test system is MES-SA. The data set is described as above. Type of data set: cell-based. Particulars: Homo sapiens, TAX alone. The protocol: as §6
Data set [24] relates to HCT-116 colon carcinoma. Conditions: cited from earlier work.

Square brackets hold non-standard residues; d marks the D form. Peptide text beside a SMILES is read from it. ξ: configuration not given here. Hica(2S) = CC(C)C[C@H](O)C(=O)O; ξLac(3-iPr) = CC(C)CC(O)C(=O)O; NMeL = CN[C@@H](CC(C)C)C(=O)O Some results are limits rather than exact numbers.

Consider `CC(C)CC1OC(=O)[C@H](Cc2ccccc2)NC(=O)[C@H](CC(C)C)NC(=O)[C@H](C(C)C)NC(=O)[C@H](CC(C)C)N(C)C1=O` (some centres unmarked) [Com. 2, neo-Nmethylsansalvamide] (cyclo(F[ξLac(3-iPr)][NMeL]VL)), for which the EC50 in [1] is 10.7 ± 0.15 µM; in data set [2], 12.5 ± 0.71 µM; in [3] it was 13.5 ± 1.19 µM; in data set [4] it was 14 ± 0.74 µM; in data set [5], 11.4 ± 0.3 µM; in data set [6], 10 ± 0.53 µM. The EC50 in data set [7] worked out at 11.2 ± 1.23 µM. Besides, in [8], the “Effect on the cytotoxicity of paclitaxel against MDR cell lines” value was “remarkably enhanced the cytotoxicity of paclitaxel”. In addition, the “Inhibitory activity (clear zone around disc)” value in [9], in data set [10], in [11], in data set [12], in data set [13] and in data set [14] was “Neither the compound of Chemical Formula 1 nor Chemical Formula 2 showed inhibitory activity” in each case. For the same compound, the “Inhibitory activity on mycelial growth” value in data set [15] was “No inhibitory activities were detected”; in data set [16] (1 mM, 25° C., 48 hr), “No inhibitory activities were detected”; in data set [17] (1 mM, 25° C., 48 hr) it was “No inhibitory activities were detected”; in data set [18], “No inhibitory activities were detected”. Also, the “Antifungal test, overall result” value in data set [16] was “inhibitory against Mucor rouxii, and Fusarium oxysporum, weakly”; in [17], “inhibitory against Mucor rouxii, and Fusarium oxysporum, weakly”. For the same compound, in data set [16] (10 mM, 25° C., 48 hr), the “Clear zone / inhibitory effect on mycelium” value is listed as “exhibited an inhibitory effect at 10 mM, weakly”. Also, in data set [17] (10 mM, 25° C., 48 hr), the Clear zone entry is on record as “no clear zones were observed”. Besides, in [17] (10 mM, 25° C., 48 hr), the “Hyphal growth near the paper disc” value was “hyphal growth of Mucor rouxii was reduced”.
As usually defined, the GI50 is the concentration giving 50% growth inhibition. As for `CC(C)C[C@@H]1NC(=O)[C@H](Cc2ccccc2)NC(=O)[C@H](CC(C)C)N(C)C(=O)[C@H](C(C)C)NC(=O)[C@H](CC(C)C)OC1=O` [N-Methylsansalvamide] (cyclo(FL[Hica(2S)]V[NMeL])), the GI50 in [19] is 8.3 µM.
`CC(=O)O[C@H]1C(=O)[C@@]2(C)[C@H]([C@H](OC(=O)c3ccccc3)[C@]3(O)C[C@H](OC(=O)[C@H](O)[C@@H](NC(=O)c4ccccc4)c4ccccc4)C(C)=C1C3(C)C)[C@]1(OC(C)=O)CO[C@@H]1C[C@@H]2O` [TAX, paclitaxel]: the EC50 in data set [20] is > 1 µM; in data set [21] it was 0.00085 ± 0.00063 µM; in data set [22] it was 0.01 ± 0.00053 µM; in [23], 0.001 ± 0.0002 µM.
On to `CC(C)C[C@@H]1NC(=O)[C@H](C(C)C)NC(=O)[C@H](CC(C)C)OC(=O)[C@H](CC(C)C)NC(=O)[C@H](Cc2ccccc2)NC1=O` [sansalvamide] (cyclo(FL[Hica(2S)]VL)), for which the “in vitro IC50” value in data set [24] is 9.8 µg/mL.
